Here are results for 37 compounds from BindingDB's records for doi:10.7270/Q2NZ862K (Nmmlsc, 2007).

Each structure is given as a SMILES string. Some results are limits rather than exact numbers.

The target of the experiment is T1, fMet-Leu-Phe receptor (Homo sapiens, UniProt P21462).
T1 sequence (P21462 whole entry): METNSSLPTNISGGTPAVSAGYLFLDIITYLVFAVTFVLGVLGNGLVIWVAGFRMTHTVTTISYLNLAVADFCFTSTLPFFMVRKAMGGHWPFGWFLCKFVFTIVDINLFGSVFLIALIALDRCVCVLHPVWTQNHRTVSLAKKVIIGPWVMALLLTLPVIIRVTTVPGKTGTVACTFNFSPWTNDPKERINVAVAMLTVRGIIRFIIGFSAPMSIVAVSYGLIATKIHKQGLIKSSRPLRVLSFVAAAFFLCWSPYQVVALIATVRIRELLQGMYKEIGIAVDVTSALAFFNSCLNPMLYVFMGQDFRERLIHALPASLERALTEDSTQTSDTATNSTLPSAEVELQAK
Briefly: formyl peptide receptor binders – dose response (AID 519).
`COc1ccccc1C1C(C(=O)c2ccccc2)C(=O)C(=O)N1CC(C)C` (configuration not stated) [(4Z)-4-[hydroxy(phenyl)methylene]-1-isobutyl-5-(2-methoxyphenyl)pyrrolidine-2,3-quinone] displayed a Ki of 3.6 µM. Compound `CC1Cc2cc(C(=O)C3C(=O)C(=O)N(CCN4CCOCC4)C3c3ccccc3F)ccc2O1` (configuration not stated) [(4E)-5-(2-fluorophenyl)-4-[(2-methyl-2,3-dihydro-1-benzofuran-5-yl)-oxidanyl-methylidene]-1-(2-morpholin-4-ylethyl)pyrrolidine-2,3-dione] showed a Ki above 43.7 µM. Consider `COc1ccc(C(=O)C2C(=O)C(=O)N(Cc3ccco3)C2c2ccc(OC)cc2OC)cc1` (configuration not stated) [(4E)-5-(2,4-dimethoxyphenyl)-1-(2-furanylmethyl)-4-[hydroxy-(4-methoxyphenyl)methylidene]pyrrolidine-2,3-dione], for which the Ki is above 43.7 µM. As to `CCOc1cccc(C(=O)C2C(=O)C(=O)N(CCOC)C2c2ccc(C)o2)c1` (configuration not stated) [(4Z)-4-[(3-ethoxyphenyl)-hydroxymethylidene]-1-(2-methoxyethyl)-5-(5-methyl-2-furanyl)pyrrolidine-2,3-dione], the affinity corresponds to a Ki of 8.8 µM.

Consider `CCOc1cccc(C(=O)C2C(=O)C(=O)N(Cc3cccnc3)C2c2ccco2)c1` (configuration not stated) [(4Z)-4-[(3-ethoxyphenyl)-hydroxymethylidene]-5-(2-furanyl)-1-(3-pyridinylmethyl)pyrrolidine-2,3-dione], for which the Ki was above 43.7 µM. Take `Cc1ccc(C2C(C(=O)c3cnn(-c4ccccc4)c3C)C(=O)C(=O)N2CCN2CCOCC2)o1` (configuration not stated) [(4Z)-4-[hydroxy-(5-methyl-1-phenyl-4-pyrazolyl)methylidene]-5-(5-methyl-2-furanyl)-1-[2-(4-morpholinyl)ethyl]pyrrolidine-2,3-dione]: the affinity corresponds to a Ki of 15.2 µM. The compound `O=c1c(C23CC4CC(CC(C4)C2)C3)c(O)n(-c2ccccc2)n1-c1ccccc1` [MLS000526352] returned a Ki of 7.5 µM.

In the case of `O=C1C(=O)N(c2ncccn2)C(c2ccc(Cl)cc2)C1C(=O)c1ccco1` (configuration not stated) [2-(4-chlorophenyl)-3-(furan-2-carbonyl)-4-hydroxy-1-pyrimidin-2-yl-2H-pyrrol-5-one], the Ki was above 43.7 µM. `CCOc1ccc(C2C(C(=O)c3cccs3)C(=O)C(=O)N2CCCn2ccnc2)cc1` (configuration not stated) [2-(4-ethoxyphenyl)-1-(3-imidazol-1-ylpropyl)-4-oxidanyl-3-thiophen-2-ylcarbonyl-2H-pyrrol-5-one] yielded a Ki of 37.4 µM.

`COc1ccc(OC)c(C2C(C(=O)c3ccccc3)C(=O)C(=O)N2Cc2ccco2)c1` (configuration not stated) [(4Z)-5-(2,5-dimethoxyphenyl)-1-(2-furanylmethyl)-4-[hydroxy(phenyl)methylidene]pyrrolidine-2,3-dione] showed a Ki of 2.2 µM. Consider `COc1ccc(C2C(C(=O)c3ccco3)C(=O)C(=O)N2CCc2ccccc2)cc1OC` (configuration not stated) [2-(3,4-dimethoxyphenyl)-3-(furan-2-carbonyl)-4-hydroxy-1-(2-phenylethyl)-2H-pyrrol-5-one], for which the affinity corresponds to a Ki of 24.1 µM.

Regarding `Cc1ccc(C(=O)C2C(=O)C(=O)N(CCN3CCOCC3)C2c2cccnc2)cc1` (configuration not stated) [(4Z)-4-[(4-methylphenyl)-oxidanyl-methylidene]-1-(2-morpholin-4-ylethyl)-5-pyridin-3-yl-pyrrolidine-2,3-dione], the Ki was above 43.7 µM.

For `CCOc1cc(C2C(C(=O)c3ccco3)C(=O)C(=O)N2CCc2ccccc2)ccc1O` (configuration not stated) [2-(3-ethoxy-4-hydroxyphenyl)-3-(furan-2-carbonyl)-4-hydroxy-1-(2-phenylethyl)-2H-pyrrol-5-one], the Ki was above 43.7 µM. Under `Cc1ccc(C2C(C(=O)c3ccc(Cl)cc3)C(=O)C(=O)N2CC2CCCO2)o1` (configuration not stated) [(4Z)-4-[(4-chlorophenyl)-hydroxy-methylene]-5-(5-methyl-2-furyl)-1-(tetrahydrofurfuryl)pyrrolidine-2,3-quinone] stands 7.6 µM. Consider `COc1ccc(CCN2C(=O)C(=O)C(C(=O)c3ccco3)C2c2cccs2)cc1OC` (configuration not stated) [1-[2-(3,4-Dimethoxy-phenyl)-ethyl]-4-(furan-2-carbonyl)-3-hydroxy-5-thiophen-2-yl-1,5-dihydro-pyrrol-2-one], for which the affinity, expressed as Ki, was 12.4 µM.

Turning to `Cc1ccc(C(=O)C2C(=O)C(=O)N(Cc3ccccc3)C2c2cccnc2)o1` (configuration not stated) [1-benzyl-3-hydroxy-4-[(5-methylfuran-2-yl)carbonyl]-5-(pyridin-3-yl)-2,5-dihydro-1H-pyrrol-2-one], the Ki is above 43.7 µM. Compound `Cc1ccc(C(=O)C2C(=O)C(=O)N(CC(C)O)C2c2ccc(N(C)C)cc2)cc1` (configuration not stated) [(4E)-5-[4-(dimethylamino)phenyl]-1-(2-hydroxypropyl)-4-[hydroxy(p-tolyl)methylene]pyrrolidine-2,3-quinone] had a Ki above 43.7 µM. As for `O=C1C(=O)N(CCOCCO)C(c2cccs2)C1C(=O)c1cccs1` (configuration not stated) [1-[2-(2-hydroxyethyloxy)ethyl]-4-oxidanyl-2-thiophen-2-yl-3-thiophen-2-ylcarbonyl-2H-pyrrol-5-one], the Ki is 14 µM. On to `O=C1C(=O)N(CCCN2CCOCC2)C(c2ccccn2)C1C(=O)c1cc2ccccc2o1` (configuration not stated) [3-(1-benzofuran-2-carbonyl)-4-hydroxy-1-(3-morpholin-4-ylpropyl)-2-pyridin-2-yl-2H-pyrrol-5-one], for which the affinity, expressed as Ki, was 39.7 µM. On to `COc1ccccc1C1C(C(=O)c2ccccc2)C(=O)C(=O)N1CC(C)O` (configuration not stated) [(4Z)-4-[hydroxy(phenyl)methylene]-1-(2-hydroxypropyl)-5-(2-methoxyphenyl)pyrrolidine-2,3-quinone], for which the Ki came out at 16.1 µM. The compound `Cc1ccc(C2C(C(=O)c3sc(C)nc3C)C(=O)C(=O)N2CCN2CCOCC2)o1` (configuration not stated) [3-(2,4-dimethyl-1,3-thiazole-5-carbonyl)-4-hydroxy-2-(5-methylfuran-2-yl)-1-(2-morpholin-4-ylethyl)-2H-pyrrol-5-one] displayed a Ki above 43.7 µM. `COC(=O)c1[nH]c(C)c(C(=O)C2C(=O)C(=O)N(CCN3CCOCC3)C2c2cccnc2)c1C` (configuration not stated) [4-[(E)-hydroxy-[1-[2-(4-morpholinyl)ethyl]-4,5-dioxo-2-(3-pyridinyl)-3-pyrrolidinylidene]methyl]-3,5-dimethyl-1H-pyrrole-2-carboxylic acid methyl ester] showed a Ki of 13.6 µM. Under `C=CCOc1ccc(C2C(C(=O)c3cccs3)C(=O)C(=O)N2c2nnc(C)s2)cc1` (configuration not stated) [1-(5-methyl-1,3,4-thiadiazol-2-yl)-4-oxidanyl-2-(4-prop-2-enoxyphenyl)-3-thiophen-2-ylcarbonyl-2H-pyrrol-5-one] stands 26.5 µM. Compound `Cc1ccc(C2c3c([nH]c(=S)[nH]c3=O)N=C3CC(C)(C)CC(=O)C32)cc1` (configuration not stated) [8,8-dimethyl-5-(4-methylphenyl)-2-sulfanylidene-5,7,9,10-tetrahydro-1H-pyrimido[4,5-b]quinoline-4,6-dione] returned a Ki of 31.4 µM. For the compound `O=C1C(=O)N(Cc2ccccc2)C(c2ccncc2)C1C(=O)c1ccco1` (configuration not stated) [1-Benzyl-4-(furan-2-carbonyl)-3-hydroxy-5-pyridin-4-yl-1,5-dihydro-pyrrol-2-one], the affinity corresponds to a Ki of 8.9 µM.

Compound `COc1cccc(OC)c1C(=O)C(C#N)c1nc2ccccc2[nH]1` (configuration not stated) [SMR000024183] came in with a Ki above 43.7 µM. `COc1ccc(C(=O)C2C(=O)C(=O)N(c3nc(C)c(C)s3)C2c2ccco2)cc1` (configuration not stated) [(4Z)-1-(4,5-dimethyl-1,3-thiazol-2-yl)-5-(furan-2-yl)-4-[(4-methoxyphenyl)-oxidanyl-methylidene]pyrrolidine-2,3-dione] came in with a Ki above 43.7 µM.

For `CC1=NC(C)=C(C#N)C(c2ccc3ncccc3c2)C1C#N` (configuration not stated), the Ki is above 43.7 µM.

The compound `CCCCc1c(O)n(-c2ccccc2)n(-c2ccccc2)c1=O` [3,5-Dioxo-1,2-diphenyl-4-n-butylpyrazolidine] displayed a Ki of 3.5 µM. `CCCOc1ccc(C2C(C(=O)c3ccc(C)o3)C(=O)C(=O)N2Cc2cccnc2)cc1` (configuration not stated) [3-(5-methylfuran-2-yl)carbonyl-4-oxidanyl-2-(4-propoxyphenyl)-1-(pyridin-3-ylmethyl)-2H-pyrrol-5-one] displayed a Ki of 27.9 µM.

In turn, `CCOc1ccc(C(=O)C2C(=O)C(=O)N(CC3CCCO3)C2c2ccco2)cc1` (configuration not stated) [(4Z)-4-[(4-ethoxyphenyl)-hydroxymethylidene]-5-(2-furanyl)-1-(2-oxolanylmethyl)pyrrolidine-2,3-dione] had a Ki of 21 µM.

With `COCc1cc(C2C(C(=O)c3ccco3)C(=O)C(=O)N2CCOCCO)ccc1O` (configuration not stated) [3-(furan-2-carbonyl)-4-hydroxy-1-[2-(2-hydroxyethoxy)ethyl]-2-[4-hydroxy-3-(methoxymethyl)phenyl]-2H-pyrrol-5-one], the affinity corresponds to a Ki of 19.4 µM. On to `CCCOc1ccc(C2C(C(=O)c3ccco3)C(=O)C(=O)N2CCCn2ccnc2)cc1` (configuration not stated) [3-(furan-2-carbonyl)-4-hydroxy-1-(3-imidazol-1-ylpropyl)-2-(4-propoxyphenyl)-2H-pyrrol-5-one], for which the Ki is above 43.7 µM. For `COc1cc(-n2nc(C)c3c2OC(=N)C(C#N)C3c2ccccc2)c(Cl)c(Br)c1O` (configuration not stated) [6-amino-1-(3-bromo-2-chloro-4-hydroxy-5-methoxyphenyl)-3-methyl-4-phenyl-1,4-dihydropyrano[2,3-c]pyrazole-5-carbonitrile], the Ki came to 21.3 µM. The compound `COCCN1C(=O)C(=O)C(C(=O)c2cccs2)C1c1ccccc1` (configuration not stated) [1-(2-methoxyethyl)-4-oxidanyl-2-phenyl-3-thiophen-2-ylcarbonyl-2H-pyrrol-5-one] returned a Ki above 43.7 µM. `O=C1CCCC(=O)C1C(C#Cc1ccccc1)C1C(=O)CCCC1=O` [3-hydroxy-2-[1-(2-hydroxy-6-keto-cyclohexen-1-yl)-3-phenyl-prop-2-ynyl]cyclohex-2-en-1-one]: the Ki was above 43.7 µM. For the compound `Cc1cc(N2C(=O)C(=O)C(C(=O)c3ccco3)C2c2cccnc2)no1` (configuration not stated) [3-(furan-2-carbonyl)-4-hydroxy-1-(5-methyl-1,2-oxazol-3-yl)-2-pyridin-3-yl-2H-pyrrol-5-one], the Ki is above 43.7 µM.

In general, Ki refers to the dissociation constant of the complex between target and ligand, obtained from inhibition or displacement. A low value points to a stronger hold on the target.
